In patent US20070066681A1, “Pharmaceutical composition for treating fatty liver or hepatic disease” (CHUGAI SEIYAKU KAUSHIKI KAISHA, priority 2003, published 2007):

Tests used:
Assay type in all cases: in vivo
[1] = system: apoAI deficiency mice fed with high fat diet; assay: Same high fat diet test in apoAI deficiency mice; settings: B+ high fat diet (0.6% BO-653), only high fat diet: 159±10
Procedure: (§1) Mice expressing excess apoAI (female, 10 to 11 weeks of age, purchased from Jackson Laboratories) were divided into 4 groups of N-animals. The animals of the respective groups were fed with a normal diet, a high fat diet, a 0.6% BO-653-containing high fat diet (hereinafter referred to as B+ high fat diet), and a 0.5% probucol-containing high fat diet (hereinafter referred to as P+ high fat diet).
(§2) The B+high fat diet and the P+ high fat diet were prepared by removing cellulose in amounts corresponding to 0.60% and 0.50%, respectively, from the high fat diet of the above composition, and adding the corresponding amounts of BO-653 and probucol, respectively, to the remaining composition. Probucol is a liposoluble antioxidant.
(§3) Serum was separated from the collected blood, and AST and total cholesterol in the serum were measured with an autoanalyzer (COBS FARAII ROCHE). The entire body of the animal subjected to the laparotomy and blood collection was perfused with physiological saline, and the weight of the liver was measured.
(§4) The same tests were conducted using C57BL/6J mice (female, 6 weeks of age, purchased from CLEA Japan) expressing apolipoprotein AI normally, and apoAI deficiency mice (female, 10 to 11 weeks of age, purchased from Jackson Laboratories) expressing no apolipoprotein AI in contrast to the animals in the present Test Example.

[2] = system: C57BL/6J mice fed with high fat diet; assay: Same high fat diet test in C57BL/6J mice expressing apolipoprotein AI normally; settings: B+ high fat diet (0.6% BO-653), only high fat diet: 275±31
Procedure: as §1, §2, §3, §4

[3] = system: excess apoAI expressing mice fed with high fat diet; assay: Action of BO-653 on excess apoAI expressing mice fed with high fat diet (fatty liver and associated hepatic disease); settings: for AST (serum) / Liver weight / Total cholesterol (serum): 0.6% BO-653 or 0.5% probucol in high fat diet, 37 weeks of feeding, mean ± standard error; for blood AST compared with high fat diet group (in words) / liver weight compared with high fat diet group (in words): drug-containing high fat diet vs high fat diet only, 37 weeks
Description: The therapeutic activity of BO-653 against fatty liver and associated hepatic disease was investigated using excess apoAI expressing mice which were fed with a high fat diet to induce fatty liver and further develop hepatic diseases.
ApoAI, i.e., apolipoprotein AI, is an apolipoprotein constituting high density lipoproteins mainly responsible for blood lipid metabolism in rodents including mice. In mice expressing excess apoAI, blood cholesterol levels are originally high. Thus, even if they are fed with a high fat diet for causing the onset of fatty liver, increases in blood cholesterol are relatively small. Such mice are advantageous in that the influence of changes in blood cholesterol on the results of the test need not be considered in evaluating the therapeutic activity of BO-653 against fatty liver and associated hepatic disease.
as §1, §2, §3

[4] = system: apoE deficiency mice; assay: Effect of BO-653 in apoE deficiency mice
Procedure: Besides, the effect of BO-653 was tested using apoE deficiency mice. These mice are known as mice showing high blood total cholesterol levels even on a normal diet and, at the same time, show high blood AST even on a normal diet.

SMILES | blood ASL [1] | serum AST [2] | AST (serum) [3] [U/L] | Liver weight [3] [mg] | Total cholesterol (serum) [3] [mg/dL] | suppression of AST leakage from liver cells, action relative to probucol ([3]; decline in blood AST, B+ vs P+ high fat diet) | blood AST compared with high fat diet group (in words) [3] | liver weight compared with high fat diet group (in words) [3] | blood AST [4] | blood total cholesterol values [4]
CCCCCC1(CCCCC)Cc2c(cc(C(C)(C)C)c(O)c2C(C)(C)C)O1 [BO-653, 4,6-di-t-butyl-5-hydroxy-2,2-di-n-pentyl-2,3-dihydrobenzofuran] | 85±8 | 181±18 | 96 ± 7 | 2789 ± 106 | 353 ± 32 | several times as high as that of probucol | greatly lower | significantly less | lowered | without involving changes
CC(C)(Sc1cc(C(C)(C)C)c(O)c(C(C)(C)C)c1)Sc1cc(C(C)(C)C)c(O)c(C(C)(C)C)c1 [probucol, reference compound] | – | – | 218 ± 18 | 2923 ± 185 | 203 ± 10 | – | not as great as those in the B+ high fat diet group | not as great as those in the B+ high fat diet group | – | –
